Assay results from PubChem BioAssay AID2060340 (Molecular Pharmacology Branch, DTP, NCI, 2025).

System: 349418-098-R-PDC spheroids, viability, % test/control
Test: Anticancer human tumor 349418-098-R-PDC patient-derived lung adenocarcinoma cell line growth inhibition [IpAb]
Conditions: spheroids with HUVEC and MSC; for IC50: curve of first compound; for viability, T/C: stronger effect = lower value
Method in brief: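 Combinations with ipatasertib or abemaciclib were tested on tumour spheroids holding HUVEC (25%) and MSC (15%) alongside 60% malignant cells. Top concentration was at or near clinical Cmax (10 microM if undefined), descending in half-log steps.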

[1] = second compound 0.1 µM, first compound 0.0316 µM
[2] = second compound 0.1 µM, first compound 0.1 µM
[3] = second compound 0.1 µM, first compound 0.316 µM
[4] = second compound 0.1 µM, first compound 1 µM
[5] = second compound 0.1 µM, first compound 3.16 µM
[6] = second compound 0.1 µM, first compound 10 µM
[7] = second compound 0.316 µM, first compound 0.0316 µM
[8] = second compound 0.316 µM, first compound 0.1 µM
[9] = second compound 0.316 µM, first compound 0.316 µM
[10] = second compound 0.316 µM, first compound 1 µM
[11] = second compound 0.316 µM, first compound 3.16 µM
[12] = second compound 0.316 µM, first compound 10 µM
[13] = second compound 1 µM, first compound 0.0316 µM
[14] = second compound 1 µM, first compound 0.1 µM
[15] = second compound 1 µM, first compound 0.316 µM
[16] = second compound 1 µM, first compound 1 µM
[17] = second compound 1 µM, first compound 3.16 µM
[18] = second compound 1 µM, first compound 10 µM
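Note: spheroids exposed to compounds for 7 days.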

SMILES | IC50 (second compound 0.1 µM) [nM] | IC50 (second compound 0.316 µM) [nM] | IC50 (second compound 1 µM) [nM] | viability, T/C [1] [%] | viability, T/C [2] [%] | viability, T/C [3] [%] | viability, T/C [4] [%] | viability, T/C [5] [%] | viability, T/C [6] [%] | viability, T/C [7] [%] | viability, T/C [8] [%] | viability, T/C [9] [%] | viability, T/C [10] [%] | viability, T/C [11] [%] | viability, T/C [12] [%] | viability, T/C [13] [%] | viability, T/C [14] [%] | viability, T/C [15] [%] | viability, T/C [16] [%] | viability, T/C [17] [%] | other results
C=CC(=O)N1CCN(c2nc(=O)n(-c3c(C)ccnc3C(C)C)c3nc(-c4c(O)cccc4F)c(F)cc23)C(C)C1 (stereo not given) + CC(C)NCC(C(=O)N1CCN(c2ncnc3c2C(C)CC3O)CC1)c1ccc(Cl)cc1 | 4010 | 1000 | < 31.6 | 95.8 | 89.6 | 76.7 | 70.2 | 64.7 | 21.7 | 51.9 | 55.1 | 51.4 | 50.2 | 23.9 | 12.5 | 28.4 | 28.3 | 19.6 | 17.2 | 11.9 | IC50 (second compound 3.16 µM): < 31.6 nM; IC50 (second compound 10 µM): < 31.6 nM; viability, T/C [18]: 7.34%; viability, T/C (second compound 3.16 µM, first compound 0.0316 µM): 12.3%; viability, T/C (second compound 3.16 µM, first compound 0.1 µM): 13.3%; viability, T/C (second compound 3.16 µM, first compound 0.316 µM): 11.8%; viability, T/C (second compound 3.16 µM, first compound 1 µM): 10%; viability, T/C (second compound 3.16 µM, first compound 3.16 µM): 6.96%; viability, T/C (second compound 3.16 µM, first compound 10 µM): 5.34%; viability, T/C (second compound 10 µM, first compound 0.0316 µM): 6.48%; viability, T/C (second compound 10 µM, first compound 0.1 µM): 8.12%; viability, T/C (second compound 10 µM, first compound 0.316 µM): 6.94%; viability, T/C (second compound 10 µM, first compound 1 µM): 5.09%; viability, T/C (second compound 10 µM, first compound 3.16 µM): 5.95%; viability, T/C (second compound 10 µM, first compound 10 µM): 4.63%
Cc1nc(NC(=O)N2CCCC2C(N)=O)sc1-c1ccnc(C(C)(C)C(F)(F)F)c1 (stereo not given) + CCN1CCN(Cc2ccc(Nc3ncc(F)c(-c4cc(F)c5nc(C)n(C(C)C)c5c4)n3)nc2)CC1 | < 31.6 | < 31.6 | < 31.6 | 20.3 | 13.9 | 9.49 | 7.63 | 7.46 | 7.65 | 15.9 | 12.6 | 9.79 | 8.43 | 9 | 7.65 | 12.8 | 11.4 | 9.14 | 7.42 | 7.89 | IC50 (second compound 0.01 µM): 47.5 nM; IC50 (second compound 0.0316 µM): < 31.6 nM; viability, T/C (second compound 0.01 µM, first compound 0.0316 µM): 59.8%; viability, T/C (second compound 0.01 µM, first compound 0.1 µM): 32.7%; viability, T/C (second compound 0.01 µM, first compound 0.316 µM): 17.9%; viability, T/C (second compound 0.01 µM, first compound 1 µM): 14.1%; viability, T/C (second compound 0.01 µM, first compound 3.16 µM): 10.2%; viability, T/C (second compound 0.01 µM, first compound 10 µM): 8.7%; viability, T/C (second compound 0.0316 µM, first compound 0.0316 µM): 40.5%; viability, T/C (second compound 0.0316 µM, first compound 0.1 µM): 27.1%; viability, T/C (second compound 0.0316 µM, first compound 0.316 µM): 12.1%; viability, T/C (second compound 0.0316 µM, first compound 1 µM): 7.43%; viability, T/C (second compound 0.0316 µM, first compound 3.16 µM): 7.43%; viability, T/C (second compound 0.0316 µM, first compound 10 µM): 8.13%; viability, T/C [18]: 6.94%
